According to the kinase profiling compilation of Christmann-Franck et al. (2016):

Experiments:
Assay in all cases: KINOMEscan competition binding
Conditions in all cases: compound 10.0 µM
CSNK1A1 (human) = CSNK1A1 (human) (UniProt P48729)
NIM1 (human) = NIM1 (human) (UniProt Q8IY84)
EPHB4 (human) = EPHB4 (human) (UniProt P54760)
MAK (human) = MAK (human) (UniProt P20794)
YES1 (human) = YES1 (human) (UniProt P07947)
MINK1 (human) = MINK1 (human) (UniProt Q8N4C8)
TEK (human) = TEK (human) (UniProt Q02763)
[1] = tested on: EGFR (human), P00533 [T790M/L858R]
TNK1 (human) = TNK1 (human) (UniProt Q13470)
ERBB2 (human) = ERBB2 (human) (UniProt P04626)
LATS1 (human) = LATS1 (human) (UniProt O95835)
TYRO3 (human) = TYRO3 (human) (UniProt Q06418)
ACVR1B (human) = ACVR1B (human) (UniProt P36896)
ABL2 (human) = ABL2 (human) (UniProt P42684)
CDK17 (human) = CDK17 (human) (UniProt Q00537)
[2] = target: TYK2 JH1 catalytic (human) (UniProt P29597)
PKMYT1 (human) = PKMYT1 (human) (UniProt Q99640)
PRKCD (human) = PRKCD (human) (UniProt Q05655)
ALK (human) = ALK (human) (UniProt Q9UM73)
NEK9 (human) = NEK9 (human) (UniProt Q8TD19)
MAP2K6 (human) = MAP2K6 (human) (UniProt P52564)
EPHA1 (human) = EPHA1 (human) (UniProt P21709)
NEK5 (human) = NEK5 (human) (UniProt Q6P3R8)
LRRK2 (human) = LRRK2 (human) (UniProt Q5S007)
MAP3K12 (human) = MAP3K12 (human) (UniProt Q12852)
CDK16 (human) = CDK16 (human) (UniProt Q00536)
CRK2 (P.falciparum) = CRK2 (P.falciparum) (UniProt P61075)
CLK2 (human) = CLK2 (human) (UniProt P49760)
RPS6KA1 KD1 (human) = RPS6KA1 KD1 (human) (UniProt Q15418)
PIP4K2C (human) = PIP4K2C (human) (UniProt Q8TBX8)
MARK2 (human) = MARK2 (human) (UniProt Q7KZI7)
ACVR2A (human) = ACVR2A (human) (UniProt P27037)
RIPK4 (human) = RIPK4 (human) (UniProt P57078)
MAP3K2 (human) = MAP3K2 (human) (UniProt Q9Y2U5)
CAMK4 (human) = CAMK4 (human) (UniProt Q16566)
EPHB1 (human) = EPHB1 (human) (UniProt P54762)
TAOK2 (human) = TAOK2 (human) (UniProt Q9UL54)
PRPF4B (human) = PRPF4B (human) (UniProt Q13523)
SLK (human) = SLK (human) (UniProt Q9H2G2)
MST4 (human) = MST4 (human) (UniProt Q9P289)

Chain of ACVR1B (human) (P36896 whole entry, looked up): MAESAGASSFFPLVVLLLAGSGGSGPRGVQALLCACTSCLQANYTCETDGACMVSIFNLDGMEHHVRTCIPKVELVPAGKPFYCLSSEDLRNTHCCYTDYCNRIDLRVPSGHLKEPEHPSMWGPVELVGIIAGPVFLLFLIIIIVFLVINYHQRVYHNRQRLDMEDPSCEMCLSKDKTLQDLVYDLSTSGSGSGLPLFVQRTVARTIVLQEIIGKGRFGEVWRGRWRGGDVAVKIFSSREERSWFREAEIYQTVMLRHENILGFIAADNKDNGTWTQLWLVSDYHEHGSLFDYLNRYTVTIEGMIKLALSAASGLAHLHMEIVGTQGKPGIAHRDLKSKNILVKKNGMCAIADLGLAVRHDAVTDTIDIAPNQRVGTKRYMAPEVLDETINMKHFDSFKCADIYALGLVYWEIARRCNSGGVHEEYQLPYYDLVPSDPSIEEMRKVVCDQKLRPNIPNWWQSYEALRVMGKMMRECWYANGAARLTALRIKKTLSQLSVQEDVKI
Chain of MINK1 (human) (Q8N4C8 whole entry, looked up): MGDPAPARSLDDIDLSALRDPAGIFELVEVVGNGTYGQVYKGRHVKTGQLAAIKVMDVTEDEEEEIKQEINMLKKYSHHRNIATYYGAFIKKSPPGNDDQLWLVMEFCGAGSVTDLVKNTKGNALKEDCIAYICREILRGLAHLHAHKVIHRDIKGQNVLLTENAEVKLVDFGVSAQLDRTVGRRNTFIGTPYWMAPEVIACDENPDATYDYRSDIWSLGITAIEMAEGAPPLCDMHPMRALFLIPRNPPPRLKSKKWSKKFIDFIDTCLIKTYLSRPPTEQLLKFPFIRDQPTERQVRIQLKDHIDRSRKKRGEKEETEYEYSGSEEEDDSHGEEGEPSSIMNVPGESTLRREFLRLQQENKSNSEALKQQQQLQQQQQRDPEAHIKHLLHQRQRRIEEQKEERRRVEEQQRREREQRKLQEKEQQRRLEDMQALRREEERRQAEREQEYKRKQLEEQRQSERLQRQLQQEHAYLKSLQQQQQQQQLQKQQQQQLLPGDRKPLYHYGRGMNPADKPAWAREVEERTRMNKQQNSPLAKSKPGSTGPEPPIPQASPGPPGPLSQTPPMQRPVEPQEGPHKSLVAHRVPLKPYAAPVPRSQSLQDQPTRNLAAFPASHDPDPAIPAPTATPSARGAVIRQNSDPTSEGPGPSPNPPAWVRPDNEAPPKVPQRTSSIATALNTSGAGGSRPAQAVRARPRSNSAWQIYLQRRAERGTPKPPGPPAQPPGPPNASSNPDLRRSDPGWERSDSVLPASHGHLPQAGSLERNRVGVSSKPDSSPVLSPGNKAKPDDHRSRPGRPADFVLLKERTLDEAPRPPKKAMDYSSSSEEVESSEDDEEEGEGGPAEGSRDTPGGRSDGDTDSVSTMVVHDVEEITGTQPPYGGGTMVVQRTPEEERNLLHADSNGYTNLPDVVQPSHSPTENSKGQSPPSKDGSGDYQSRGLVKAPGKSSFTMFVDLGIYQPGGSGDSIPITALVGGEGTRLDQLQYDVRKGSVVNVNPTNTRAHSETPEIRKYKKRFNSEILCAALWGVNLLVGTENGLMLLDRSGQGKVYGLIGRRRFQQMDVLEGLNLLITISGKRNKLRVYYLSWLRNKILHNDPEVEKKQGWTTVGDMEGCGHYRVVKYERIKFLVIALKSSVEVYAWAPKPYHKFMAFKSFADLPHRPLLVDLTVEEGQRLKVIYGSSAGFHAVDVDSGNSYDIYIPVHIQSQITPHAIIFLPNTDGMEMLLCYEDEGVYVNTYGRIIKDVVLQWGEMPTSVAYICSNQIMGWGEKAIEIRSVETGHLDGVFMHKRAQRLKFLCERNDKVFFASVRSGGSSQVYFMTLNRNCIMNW
Chain of CDK17 (human) (Q00537 whole entry, looked up): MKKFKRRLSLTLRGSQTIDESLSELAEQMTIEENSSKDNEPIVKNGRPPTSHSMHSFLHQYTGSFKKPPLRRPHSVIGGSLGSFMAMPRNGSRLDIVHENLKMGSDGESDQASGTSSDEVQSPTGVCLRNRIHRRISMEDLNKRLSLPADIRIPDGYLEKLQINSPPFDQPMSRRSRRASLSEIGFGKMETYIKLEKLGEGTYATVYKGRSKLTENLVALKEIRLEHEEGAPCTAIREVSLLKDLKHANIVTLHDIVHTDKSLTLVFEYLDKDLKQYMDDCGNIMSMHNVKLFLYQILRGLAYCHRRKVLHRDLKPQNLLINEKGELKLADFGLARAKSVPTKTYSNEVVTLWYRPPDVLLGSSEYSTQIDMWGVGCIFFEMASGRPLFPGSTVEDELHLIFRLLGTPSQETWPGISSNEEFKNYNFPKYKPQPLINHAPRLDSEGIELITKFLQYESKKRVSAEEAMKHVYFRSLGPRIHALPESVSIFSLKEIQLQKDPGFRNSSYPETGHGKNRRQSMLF
Chain of EPHB4 (human) (P54760 whole entry, looked up): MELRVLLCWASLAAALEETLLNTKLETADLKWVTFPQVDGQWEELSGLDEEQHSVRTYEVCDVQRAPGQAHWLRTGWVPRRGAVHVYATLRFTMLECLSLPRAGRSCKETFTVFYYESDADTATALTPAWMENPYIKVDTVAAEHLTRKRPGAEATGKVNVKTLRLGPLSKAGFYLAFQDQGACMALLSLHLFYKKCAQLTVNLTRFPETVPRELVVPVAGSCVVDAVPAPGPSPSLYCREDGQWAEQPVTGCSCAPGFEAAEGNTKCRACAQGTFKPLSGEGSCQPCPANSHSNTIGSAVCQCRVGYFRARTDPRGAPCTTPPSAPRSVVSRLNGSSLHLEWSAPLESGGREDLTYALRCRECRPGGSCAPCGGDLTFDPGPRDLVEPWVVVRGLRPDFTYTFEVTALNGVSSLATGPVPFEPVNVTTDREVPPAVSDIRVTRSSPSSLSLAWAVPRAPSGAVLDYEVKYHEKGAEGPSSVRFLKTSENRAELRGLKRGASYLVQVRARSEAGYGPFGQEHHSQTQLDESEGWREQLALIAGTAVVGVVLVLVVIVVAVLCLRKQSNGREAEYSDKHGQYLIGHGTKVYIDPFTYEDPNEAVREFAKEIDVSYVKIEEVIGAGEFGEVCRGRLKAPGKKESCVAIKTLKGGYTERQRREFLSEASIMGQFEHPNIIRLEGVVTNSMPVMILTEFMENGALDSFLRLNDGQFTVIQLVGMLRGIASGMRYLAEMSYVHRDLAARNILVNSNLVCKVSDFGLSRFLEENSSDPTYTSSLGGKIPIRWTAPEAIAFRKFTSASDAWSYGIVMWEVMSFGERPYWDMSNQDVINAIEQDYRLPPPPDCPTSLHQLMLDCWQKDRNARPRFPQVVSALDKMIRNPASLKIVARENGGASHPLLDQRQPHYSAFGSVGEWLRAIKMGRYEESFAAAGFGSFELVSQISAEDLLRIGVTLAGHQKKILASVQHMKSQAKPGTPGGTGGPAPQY
Chain of EPHB1 (human) (P54762 whole entry, looked up): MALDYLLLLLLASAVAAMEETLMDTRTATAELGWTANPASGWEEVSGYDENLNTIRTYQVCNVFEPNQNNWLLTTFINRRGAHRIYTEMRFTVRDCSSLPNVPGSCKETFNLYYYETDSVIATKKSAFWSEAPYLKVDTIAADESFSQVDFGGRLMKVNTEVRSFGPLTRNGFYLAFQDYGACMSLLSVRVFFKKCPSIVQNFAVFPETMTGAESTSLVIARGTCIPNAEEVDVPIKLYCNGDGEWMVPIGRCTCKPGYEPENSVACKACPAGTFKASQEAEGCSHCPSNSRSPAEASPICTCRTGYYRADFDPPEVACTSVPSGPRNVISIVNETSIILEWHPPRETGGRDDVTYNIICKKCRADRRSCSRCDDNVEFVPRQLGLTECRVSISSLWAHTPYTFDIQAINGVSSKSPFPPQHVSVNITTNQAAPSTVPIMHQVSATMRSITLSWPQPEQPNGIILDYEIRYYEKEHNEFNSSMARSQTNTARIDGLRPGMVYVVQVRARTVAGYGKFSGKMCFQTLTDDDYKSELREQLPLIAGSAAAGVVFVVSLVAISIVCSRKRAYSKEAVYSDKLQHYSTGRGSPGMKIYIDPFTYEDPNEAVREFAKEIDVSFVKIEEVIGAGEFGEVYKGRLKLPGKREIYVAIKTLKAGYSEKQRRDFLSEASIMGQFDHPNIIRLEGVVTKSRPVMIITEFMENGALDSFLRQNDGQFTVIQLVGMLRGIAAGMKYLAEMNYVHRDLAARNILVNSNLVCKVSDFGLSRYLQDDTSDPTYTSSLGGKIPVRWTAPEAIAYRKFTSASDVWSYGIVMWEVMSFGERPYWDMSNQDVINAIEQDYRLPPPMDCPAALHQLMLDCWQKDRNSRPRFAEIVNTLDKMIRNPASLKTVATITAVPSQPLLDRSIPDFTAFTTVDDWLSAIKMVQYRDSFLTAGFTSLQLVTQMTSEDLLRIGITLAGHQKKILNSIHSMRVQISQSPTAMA
Chain of MAP3K2 (human) (Q9Y2U5 whole entry, looked up): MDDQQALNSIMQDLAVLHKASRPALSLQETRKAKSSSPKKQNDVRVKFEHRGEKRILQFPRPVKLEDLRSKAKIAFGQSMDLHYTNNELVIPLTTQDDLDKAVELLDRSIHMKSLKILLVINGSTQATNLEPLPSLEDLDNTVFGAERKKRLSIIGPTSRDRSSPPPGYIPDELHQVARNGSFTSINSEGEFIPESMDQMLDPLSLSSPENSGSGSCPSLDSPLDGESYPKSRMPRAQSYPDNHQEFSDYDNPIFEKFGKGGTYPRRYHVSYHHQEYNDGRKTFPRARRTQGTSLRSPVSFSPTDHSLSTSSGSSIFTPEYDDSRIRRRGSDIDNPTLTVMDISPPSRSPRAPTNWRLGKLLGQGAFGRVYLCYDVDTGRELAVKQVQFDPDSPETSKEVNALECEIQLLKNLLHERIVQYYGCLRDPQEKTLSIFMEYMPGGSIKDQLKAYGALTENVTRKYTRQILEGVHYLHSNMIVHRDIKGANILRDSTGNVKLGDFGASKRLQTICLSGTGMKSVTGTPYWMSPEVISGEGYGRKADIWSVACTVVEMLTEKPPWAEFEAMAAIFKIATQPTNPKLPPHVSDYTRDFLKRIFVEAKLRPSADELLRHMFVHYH

Compound	kinase still bound, per cent of control (CSNK1A1 (human)) [%]	kinase still bound, per cent of control (NIM1 (human)) [%]	kinase still bound, per cent of control (EPHB4 (human)) [%]	kinase still bound, per cent of control (MAK (human)) [%]	kinase still bound, per cent of control (YES1 (human)) [%]	kinase still bound, per cent of control (MINK1 (human)) [%]	kinase still bound, per cent of control (TEK (human)) [%]	kinase still bound, per cent of control [1] [%]	kinase still bound, per cent of control (TNK1 (human)) [%]	kinase still bound, per cent of control (ERBB2 (human)) [%]	kinase still bound, per cent of control (LATS1 (human)) [%]	kinase still bound, per cent of control (TYRO3 (human)) [%]	kinase still bound, per cent of control (ACVR1B (human)) [%]	kinase still bound, per cent of control (ABL2 (human)) [%]	kinase still bound, per cent of control (CDK17 (human)) [%]	kinase still bound, per cent of control [2] [%]	kinase still bound, per cent of control (PKMYT1 (human)) [%]	kinase still bound, per cent of control (PRKCD (human)) [%]	kinase still bound, per cent of control (ALK (human)) [%]	kinase still bound, per cent of control (NEK9 (human)) [%]	further results
COc1cc2ncnc(-n3nc(-c4ccccn4)nc3N)c2cc1OC	1.4	89	22	100	77	40	45	84	11	93	100	63	14	33	59	22	63	76	45	2.2	kinase still bound, per cent of control (MAP2K6 (human)): 46%; kinase still bound, per cent of control (EPHA1 (human)): 14%; kinase still bound, per cent of control (NEK5 (human)): 26%; kinase still bound, per cent of control (LRRK2 (human)): 41%; kinase still bound, per cent of control (MAP3K12 (human)): 52%; kinase still bound, per cent of control (CDK16 (human)): 47%; kinase still bound, per cent of control (CRK2 (P.falciparum)): 94%; kinase still bound, per cent of control (CLK2 (human)): 1.8%; kinase still bound, per cent of control (RPS6KA1 KD1 (human)): 33%; kinase still bound, per cent of control (PIP4K2C (human)): 1.1%; kinase still bound, per cent of control (MARK2 (human)): 53%; kinase still bound, per cent of control (ACVR2A (human)): 66%; kinase still bound, per cent of control (RIPK4 (human)): 12%; kinase still bound, per cent of control (MAP3K2 (human)): 33%; kinase still bound, per cent of control (CAMK4 (human)): 100%; kinase still bound, per cent of control (EPHB1 (human)): 32%; kinase still bound, per cent of control (TAOK2 (human)): 42%; kinase still bound, per cent of control (PRPF4B (human)): 93%; kinase still bound, per cent of control (SLK (human)): 28%; kinase still bound, per cent of control (MST4 (human)): 68%
CCN1CCN(C(=O)Cc2ccc(Nc3ncc(F)c(Nc4ccc(C(=O)Nc5ccccc5Cl)cc4)n3)cc2)CC1	96	79	76	100	60	57	48	76	1.3	100	100	79	45	20	35	22	100	60	22	18	kinase still bound, per cent of control (MAP2K6 (human)): 44%; kinase still bound, per cent of control (EPHA1 (human)): 27%; kinase still bound, per cent of control (NEK5 (human)): 7.9%; kinase still bound, per cent of control (LRRK2 (human)): 73%; kinase still bound, per cent of control (MAP3K12 (human)): 71%; kinase still bound, per cent of control (CDK16 (human)): 40%; kinase still bound, per cent of control (CRK2 (P.falciparum)): 100%; kinase still bound, per cent of control (CLK2 (human)): 4.9%; kinase still bound, per cent of control (RPS6KA1 KD1 (human)): 45%; kinase still bound, per cent of control (PIP4K2C (human)): 38%; kinase still bound, per cent of control (MARK2 (human)): 50%; kinase still bound, per cent of control (ACVR2A (human)): 2.2%; kinase still bound, per cent of control (RIPK4 (human)): 31%; kinase still bound, per cent of control (MAP3K2 (human)): 31%; kinase still bound, per cent of control (CAMK4 (human)): 100%; kinase still bound, per cent of control (EPHB1 (human)): 66%; kinase still bound, per cent of control (TAOK2 (human)): 56%; kinase still bound, per cent of control (PRPF4B (human)): 18%; kinase still bound, per cent of control (SLK (human)): 0.2%; kinase still bound, per cent of control (MST4 (human)): 43%
O=C1NC(=O)/C(=C/c2ccc3nccc(-c4ccncc4)c3c2)S1	24	71	74	100	84	49	98	82	52	66	80	100	51	77	59	38	78	20	25	95	kinase still bound, per cent of control (MAP2K6 (human)): 69%; kinase still bound, per cent of control (EPHA1 (human)): 85%; kinase still bound, per cent of control (NEK5 (human)): 100%; kinase still bound, per cent of control (LRRK2 (human)): 62%; kinase still bound, per cent of control (MAP3K12 (human)): 96%; kinase still bound, per cent of control (CDK16 (human)): 71%; kinase still bound, per cent of control (CRK2 (P.falciparum)): 93%; kinase still bound, per cent of control (CLK2 (human)): 0.15%; kinase still bound, per cent of control (RPS6KA1 KD1 (human)): 51%; kinase still bound, per cent of control (PIP4K2C (human)): 3.2%; kinase still bound, per cent of control (MARK2 (human)): 74%; kinase still bound, per cent of control (ACVR2A (human)): 83%; kinase still bound, per cent of control (RIPK4 (human)): 56%; kinase still bound, per cent of control (MAP3K2 (human)): 90%; kinase still bound, per cent of control (CAMK4 (human)): 100%; kinase still bound, per cent of control (EPHB1 (human)): 90%; kinase still bound, per cent of control (TAOK2 (human)): 50%; kinase still bound, per cent of control (PRPF4B (human)): 88%; kinase still bound, per cent of control (SLK (human)): 0.3%; kinase still bound, per cent of control (MST4 (human)): 90%
